Data on seven molecules can be found in patent publication US4997852A, “Method and composition for achieving cancer chemopreventive and chemotherapeutic activity” (priority 1989, dated 1991).

Like-named read-outs stand apart in the source and are kept apart here.

For series [1], the system named is beta-glucuronidase. The conditions noted are these: in cells, blood, cited from earlier work.
Series [2] concerns DMBA-induced mammary tumors. The series can be described thus: chemoprevention of DMBA-induced rat mammary carcinogenesis (Example II). Format: in vivo, female Sprague Dawley rats. The protocol:
(§1) The 13-cis-RA was dissolved in a vehicle consisting of ethanol:tricaprylin:1:4 (v/v) and 4% w/v α-tochopherol. The mixture was added to the meal at the rate of 25 ml/2 kg then stored in the dark at -20° C. […] The same amount of vehicle was also added to the control diet and to the diets containing glucarate. Beginning 5 weeks post DMBA treatment, the rats were examined (palpated) twice every week for mammary tumors. They were also weighed once weekly throughout the 20 week period of the experiment.

The subject of series [3] is MCF-7 cells. The experiment in a line: inhibition of MCF-7 breast cancer cell growth in culture (Example III). Type of series: cell-based, human. Conditions: for inhibition at 0.01 µM / inhibition at 0.1 µM / inhibition at 1 µM / inhibition at 10 µM: Homo sapiens, MCF7, read-out: inhibition of cell growth. The method, then:
The MCF-7 cell line was derived from a hormone-dependent metastatic breast cancer. It has retained several characteristics of differentiated mammary epithelium, Soule et al., J. Natl. Cancer Inst. 51:1409-1413 (1973), and the cells contain estrogen receptors. The MCF-7 cell line used was obtained from the OSU Cell Culture Service laboratory, but originated from the Michigan Cancer Foundation, Detroit, Mich. The MCF-7 cells were seeded at 1×10^3 cells/cm^2 in 35 mm wells containing MEM (Earle base medium) supplemented with MEM non-essential amino acids (1.0 mM), L-glutamic acid (2.0 mM), penicillin and streptomycin (100 ug/ml) and fetal calf serum (10%) as described in Ueda et al., Cancer 46:2203-2206, (1980). The cells are maintained at 37° C. in a humidified atmosphere of 5% CO2 /20% O2 with the growth medium replaced twice a week. The retinoids were dissolved in ethanol and added to the culture medium starting 24 hrs. after seeding. […] Glucarate concentrations varied from 10^-5 to 10^-8 M. Cell counts were done with a Coulter counter and viability of the cells was determined by the trypan blue exclusion method and also by their ability to resume growth after removal of inhibitory agents. Cytotoxicity was evaluated by exposing the MCF-7 cells to equimolar concentrations of the agents and examining viability after 6 days of treatment. All experiments were done in triplicate.
In this experiment series glucarate as the soluble potassium salt and 13-cis-RA were evaluated, alone and in combination, for their ability to inhibit the growth of MCF-7 breast cancer cells in culture.
The log transformed dose refers to the level in μM added to the medium as was varied from […] (0.01) μM to 10^-1 μM. The retinoid vehicle, ethanol, was added to all cultures and all values have been corrected for its slight inhibitory effect (7%).

Series [4] in a line: weight gain of rats on CGT and HPR diets (FIG. 4). Format: in vivo, female Sprague Dawley rats. Conditions: prolonged feeding of diets containing CGT and HPR.
Experimental: (§2) They were maintained on the diets for approximately 4 mos., and were examined (palpated) for mammary tumors weekly. […] The retinoid (HPR) was first dissolved in 25 ml of a vehicle consisting of ethanol-tricaprylin-6% α-tocopherol, then thoroughly mixed with powdered rat chow.
Series [5] concerns 7,12-dimethylbenz(a)anthracene-induced mammary tumorigenesis. Conditions: cited from earlier work.
A short description of series [6]: weights of rats on diets (Example II, Table III). The conditions noted are these: CGT 2%, RA 1.0 mmol/kg diet. The method, then:
as §1

In series [7] the test system is 7,12-dimethylbenz(a)anthracene-induced mammary tumors. The experiment in a line: DMBA-induced mammary tumor formation in female Sprague Dawley rats (Example I). Format: in vivo. The conditions noted are these: 1.0% CGT.
Experimental: as §2
Protocol: 50 d old female S.D. rats received a single dose 75 mg/kg of
with DMBA, then continued throughout the experiment.
Series [8] deals with rat mammary tumors. The series can be described thus: rat mammary tumor chemoprevention and shrinkage, effective dietary levels. Format: in vivo. Conditions: for dietary level when used individually: alone.
The conditions of series [9]: CGT-supplemented diet vs normal chow diet; cited from earlier work.
Series [10] relates to chemical induction of tumors in rodent skin, mammary glands, lung and liver. The conditions noted are these: cited from earlier work.
The conditions of series [11]: GL itself; cited from earlier work.
For series [12], the system named is MCF-7 cells. The experiment in a line: growth of MCF-7 cells in GL/HPR-containing media (Table II). The conditions noted are these: 5 days. Type of series: cell-based, human.
Text: The values shown are the mean +/- ISE for three experiments counted in triplicates. The numbers in parenthesis indicate the number of free floating (mostly non viable) cells in the media.
In series [13] the test system is MCF-7 cells. The experiment in a line: growth of human breast cancer cell line MCF-7, 7 days. Format: cell-based. Conditions: MCF7, 168 h, 0.1 μM HPR, within 7 days, read-out: growth, % of the control. The protocol:
When higher doses (2 mmol/kg diet) of HPR were used, growth arrest was followed within 5 to 10 days by 30% regression of the DMBA-induced mammary tumors. Also, HPR (0.1μM) inhibited the […] growth of the human breast cancer cell line (MCF-7) to 50% of the control within 7 days.

As to 2,4-di-0-acetyl-D-glucaro-1-lactone, the inhibition of beta-glucuronidase entry in series [1] (urine, intestine and liver) was “effective as inhibitors of beta-glucuronidase”.

In the case of `CC1=C(/C=C/C(C)=C/C=C/C(C)=C\C(=O)O)C(C)(C)CCC1` [13-cis-RA, 13-cis-retinoic acid, reference compound], the “effect on tumor incidence over controls” value in series [2] (1.0 mmol/kg diet 13-cis-RA (group III)) is recorded as “slight, but insignificant, enhancement of tumor incidence”. Moreover, in series [3], the inhibition (usually the drop in the measured response relative to a control, in per cent) at 0.01 µM was found to be 2%; the inhibition at 0.1 µM amounted to 9.2%; the inhibition at 1 µM was 12%; the inhibition at 10 µM is 52.2%. Further, the “inhibitory activity of retinoid alone” value in series [3] (concentrations above 1.0 μM) is reported as “significant inhibitory activity”.

`O=C([O-])[C@@H](O)[C@@H](O)[C@H](O)[C@@H](O)C(=O)[O-].[Ca+2]` [CGT, calcium glucarate]: the “weight gain of rats” value in series [4] is “did not affect weight gain”. For the same molecule, the “effect on tumor incidence compared to control group” value in series [2] (2% CGT, 64 mmol/kg diet (group II)) is listed as “did not show any effect on tumor incidence”. In series [5] (4% CGT diet, by 28 weeks), the “tumor induction, % of that in controls” value is 30%. Moreover, the tumor regression entry in series [5] (chow diet supplemented with CGT) is reported as “some tumors on the chow diet supplemented with CGT underwent regression”. In addition, the “Weights of rats on diets” value in series [6] (0 weeks on diet, control 177.2 +/-10.9) was 182.2 +/-8.8 gm; in [6] (5 weeks on diet, control 218.3 +/-16.9), 224.8 +/-11.6 gm; in [6] (17 weeks on diet, control 247.0 +/-32.2), 250.3 +/-14.2 gm. The molecule further had an inhibition of tumors/rat in series [7] of 9%. The “dietary level when used individually” value in series [8] worked out at 128 mmol/kg. Besides, in [9], the “food quantity and weight gain” value is “identical to those on the normal chow diet”. The “inhibition of chemical induction of tumors” value in [10] (dietary, rodent skin, mammary glands, lung, liver) is given as 50-70%. Moreover, the inhibition of beta-glucuronidase result in [1] (urine, intestine and liver) was “effective as inhibitors of beta-glucuronidase”.

For `O=C(O)[C@@H](O)[C@H]1OC(=O)[C@H](O)[C@H]1O` [GL, D-glucaro-1,4-lactone], in series [11], the “absorption and clearance from the body” value was “too rapidly absorbed and cleared from the body”. Also, the “No. of viable cells” value in series [12] (GL 10^-4 M, control 60400 ± 2147) came to 49480 ± 3160. In addition, in series [12] (Homo sapiens, MCF7, 120 h, GL 10^-3 M, parenthesised, control 11, read-out: free floating cells, % of control), the activity at 1000 µM stood at 7%. Moreover, the viability at 1000 µM in [12] (Homo sapiens, MCF7, 120 h, GL 10^-3 M, read-out: viable cells, % of control) stood at 54 ± 3%. Further, the activity at 100 µM in [12] (Homo sapiens, MCF7, 120 h, GL 10^-4 M, parenthesised, control 11, read-out: free floating cells, % of control) was found to be 6%. For the same molecule, the viability at 100 µM in series [12] (Homo sapiens, MCF7, 120 h, GL 10^-4 M, read-out: viable cells, % of control) is 82 ± 5%. The inhibition of beta-glucuronidase entry is reported as “potent beta-glucuronidase inhibitor” in series [1] (urine and intestine, 4-lactone); “potent inhibitor of beta-glucuronidase” in series [1] (urine and intestine).

On to `O=C(O)[C@@H](O)[C@@H](O)[C@H](O)[C@@H](O)C(=O)[O-].[K+]` [GT, potassium hydrogen glucarate], for which, in [3] (1000-fold range of glucarate, at 13-cis-RA 0.0, 0.1 and 1.0 μM), the “increase in inhibition of growth as a function of glucarate concentration” value is recorded as 7-25%. For the same molecule, in series [3], the inhibition at 0.01 µM worked out at 0%, the inhibition at 0.1 µM is 6%, the inhibition at 1 µM amounted to 6% and the inhibition at 10 µM worked out at 11%. Besides, the inhibition of beta-glucuronidase result in [1] (urine, intestine and liver) is listed as “effective as inhibitors of beta-glucuronidase”.

In the case of `CC1=C(/C=C/C(C)=C/C=C/C(C)=C/C(=O)Nc2ccc(O)cc2)C(C)(C)CCC1` [HPR, N-(4-hydroxyphenyl)retinamide, reference compound], the activity at 0.1 µM in [13] is 50%. The “weight gain of rats” value in series [4] is “did not affect weight gain”. The activity at 0.05 µM in series [12] (Homo sapiens, MCF7, 120 h, HPR 5 × 10^-8 M, parenthesised, control 11, read-out: free floating cells, % of control) is 7%. The viability at 0.05 µM in series [12] (Homo sapiens, MCF7, 120 h, HPR 5 × 10^-8 M, read-out: viable cells, % of control) was 56 ± 4%. Moreover, the “dietary level when used individually” value in [8] came out at 2.00 mmol/kg. In addition, the “minimum dosage consistent with maximum inhibition of carcinogenesis” value in series [8] (used alone) is 1.0 to 1.5 mmol/kg.

Take `O=C(O)[C@H](O)[C@@H](O)[C@H](O)[C@H](O)CO` [calcium gluconate, reference compound]: in series [10] (equimolar calcium), the “effect on tumor induction” value is “no effect”.
